Measurements from patent publication US20010044384A1, “Method of preventing premature fruit drop from apple trees” (priority 1998, published 2001).

Columns and labels:
Format in all cases: in vivo
[1] = test system: McIntosh® Apple trees; experiment: Example 2: cyclanilide vs ReTain vs untreated on apple trees, results just before harvest; details: for % cumulative fruit dropped from tree / Fruit Starch Index: just before harvest
Excerpt: An orchard of McIntosh® Apple trees at a stage where the apples were approximately 4.5 cm in diameter were sprayed with an aqueous suspension comprising cyclanilide and Regulaid®, a non-ionic surfactant (0.25% v/v) at several rates. About two months later, the following observations were made:
The process of Example 1 was repeated using an aqueous suspension comprising cyclanilide and a surfactant using an application rate of cyclanilide of 50 g/ha. As a comparison, ReTain® ([S]-trans-2-amino-4-(2-aminoethoxy)-3-butenoic acid) was applied according to commercially acceptable methods on another plot of trees and another plot of trees were left untreated.
Just before harvest, the following results were obtained: […]

[2] = test system: apple trees; experiment: General findings on apples treated by the method of the invention (description)
[3] = test system: McIntosh® Apple trees; experiment: Example 1: spraying McIntosh apple trees with cyclanilide suspension, observations about two months later; details: about two months after spraying; for % fruit dropped from tree: with Regulaid 0.25% v/v
Excerpt: An orchard of McIntosh® Apple trees at a stage where the apples were approximately 4.5 cm in diameter were sprayed with an aqueous suspension comprising cyclanilide and Regulaid®, a non-ionic surfactant (0.25% v/v) at several rates. About two months later, the following observations were made: […]

[4] = compared with untreated fruit and fruit treated by prior art compounds

NCCO/C=C/[C@H](N)C(=O)O (stereo in doubt) [ReTain ®, [S]-trans-2-amino-4-(2-aminoethoxy)-3-butenoic acid, reference compound]
% cumulative fruit dropped from tree ([1]; 125 g/ha of ingredient): 68.2%
Fruit Starch Index ([1]; 125 g/ha of ingredient): 5.4

O=C(O)C1(C(=O)Nc2ccc(Cl)cc2Cl)CC1 [cyclanilide, 1-(2,4-dichloroanilinocarbonyl)cyclopropane carboxylic acid]
% cumulative fruit dropped from tree ([1]; 50 g/ha of ingredient): 47.4%
Fruit Starch Index ([1]; 50 g/ha of ingredient): 5.0
color of the fruit ([1]; cyclanilide 50 g/ha, compared with ReTain-treated fruit): better than that of the fruit treated by the prior art compound ReTain®
overall quality of fruit ([1]; cyclanilide 50 g/ha, compared with untreated fruit and ReTain-treated fruit): better than that of the untreated fruit and that obtained from treatment by the prior art compound ReTain®
starch content of apples ([2]; compared with apples not treated): lower starch content than apples not treated by the method of the invention
color characteristic of apples ([2]; compared with fruit treated by prior art compounds): better color characteristic than fruit treated by prior art compounds
content of soluble solids as measured by the BRIX index [2, 4]: higher content of soluble solids than untreated fruit and than fruit treated by prior art compounds
firmness of apples [2, 4]: greater firmness than untreated fruit and than fruit treated by prior art compounds
amount of fruit drop as a function of the amount applied ([2]; general statement): generally decreases as a function of the amount of cyclanilide applied
BRIX index (soluble solids) ([3]; cyclanilide 50 g/ha): 13
Fruit Starch Index ([3]; cyclanilide 50 g/ha): 5.1
% fruit dropped from tree ([3]; cyclanilide 50 g/ha): 6%
BRIX index (soluble solids) ([3]; cyclanilide 100 g/ha): 12.9
Fruit Starch Index ([3]; cyclanilide 100 g/ha): 5.0
% fruit dropped from tree ([3]; cyclanilide 100 g/ha): 9.8%
BRIX index (soluble solids) ([3]; cyclanilide 200 g/ha): 13.0
Fruit Starch Index ([3]; cyclanilide 200 g/ha): 4.9
% fruit dropped from tree ([3]; cyclanilide 200 g/ha): 13.5%
